Reference: ChEMBL document CHEMBL1201862, “PubChem BioAssay data set” (2004)
“And” between values parts separate entries of the source, which are not always exact repeats. Equal values may be shown once.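 Values below derive from 48-hour exposures of cells grown in 96-well plates, with endpoints linearly interpolated between the two concentrations bracketing the appropriate inhibition level. The concentration for 50% growth inhibition is given as GI50.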 The source made the active and inactive calls. Rule as the data show it: active = GI50 up to about 1.1 µM and inactive = higher.

How the values were obtained:
Test in all cases: NCI-60 cell line screen, 48 h
M19-MEL = test system: M19-MEL
LXFL 529 = test system: LXFL 529
HOP-18 = test system: HOP-18
KM-20L2 = test system: KM-20L2
SNB-78 = test system: SNB-78
XF498 = test system: XF498
DMS-273 = test system: DMS-273
DLD-1 = test system: DLD-1
RXF 631 = test system: RXF 631

Row | Compound | GI50 (M19-MEL) | GI50 (LXFL 529) | GI50 (HOP-18) | GI50 (KM-20L2) | GI50 (SNB-78) | GI50 (XF498) | GI50 (DMS-273) | GI50 (DLD-1) | GI50 (RXF 631)
1 | COc1cc(C2c3cc4c(cc3[C@@H](Nc3ccc(F)cc3)C3COC(=O)[C@H]23)OCO4)cc(OC)c1O (stereo not given in full) | 4.21 µM (inactive) | 6.67 µM (inactive) | 10.6 µM (inactive) | 2.08 µM (inactive) | 8.65 µM (inactive) | 2.95 µM (inactive) | 0.891 µM (active) | 3.79 µM (inactive) | 
2 | CC1=C2C(=O)O[C@@H](c3ccoc3)[C@]2(C)CCC1 [FRAXINELLONE] | > 100 µM (inactive) | > 100 µM (inactive) | > 100 µM (inactive) | > 100 µM (inactive) | > 100 µM (inactive) | > 100 µM (inactive) |  | > 100 µM (inactive) | 
3 | Cc1c2c(c(C)c3c1[nH]c1ccccc13)CN(C)CC2 | 16.6 µM (inactive) | 14.9 µM (inactive) | 6.21 µM (inactive) | 18.8 µM (inactive) | 21.9 µM (inactive) |  | 16.7 µM (inactive) | 34.4 µM (inactive) | 22.8 µM (inactive)
4 | O=C(Cn1ccnc1[N+](=O)[O-])N(CCO)CCO | > 1250 µM (inactive) |  | > 1250 µM (inactive) | > 1250 µM (inactive) | > 1250 µM (inactive) | > 58.1 µM (inactive) | > 1250 µM (inactive) | > 1250 µM (inactive) | 
5 | c1ccc(C2Nc3ccccc3C3OCCCC23)cc1 (stereo not given) | 42.6 µM (inactive) | 7.78 µM (inactive) |  | 18.4 µM (inactive) | 23.9 µM (inactive) | 56.5 µM (inactive) | 28.2 µM (inactive) | 18.9 µM (inactive) | 35.7 µM (inactive)
6 | OC1c2ccccc2C2(O)C1C(c1ccccc1)C(c1ccccc1)C2(O)c1ccccc1 (stereo not given) | 15.1 µM (inactive) | 9.82 µM (inactive) | 14.9 µM (inactive) | 8.83 µM (inactive) |  |  | 7.48 µM (inactive) |  | 
7 | Cc1cc(C)cc(NC(N)=S)c1 | > 100 µM (inactive) | > 100 µM (inactive) |  | > 100 µM (inactive) | > 100 µM (inactive) | 46.5 µM (inactive) | > 100 µM (inactive) | > 100 µM (inactive) | > 100 µM (inactive)
8 | CCOC(=O)CCC1(C(=O)OC)CCCC1=O (stereo not given) | > 100 µM (inactive) | > 100 µM (inactive) | 62.2 µM (inactive) | > 100 µM (inactive) | > 100 µM (inactive) | > 100 µM (inactive) | > 100 µM (inactive) | > 100 µM (inactive) | 
9 | CC(C)(O)[C@@H]1CC[C@@]2(C)CCC[C@H](O)[C@H]2C1 | > 100 µM (inactive) | > 100 µM (inactive) | > 100 µM (inactive) | > 100 µM (inactive) |  | > 100 µM (inactive) | > 100 µM (inactive) | > 100 µM (inactive) | > 100 µM (inactive)
10 | NC(=O)/C=C/c1c[nH]c2nccnc12 | 3.27 µM (inactive) | 0.103 µM (active) | 0.228 µM (active) | 0.0723 µM (active) |  |  | 3.52 µM (inactive) | 2.13 µM (inactive) | 
11 | COc1ccc(N2C(=O)C3c4[nH]c5ccccc5c4C4CCCCCCC4C3C2=O)cc1 (stereo not given) | 23.3 µM (inactive) | 6.08 µM (inactive) | 1.57 µM (inactive) | 28.8 µM (inactive) | 27.8 µM (inactive) | 10.4 µM (inactive) | 5.35 µM (inactive) | 11.2 µM (inactive) | 
12 | O=S(=O)(O)c1cc(O)c2c(O)c(/N=N/c3ccc(/C=C/c4ccc(/N=N/c5c(S(=O)(=O)O)cc6cc(S(=O)(=O)O)cc(O)c6c5O)cc4S(=O)(=O)O)c(S(=O)(=O)O)c3)c(S(=O)(=O)O)cc2c1 | > 100 µM (inactive) | > 100 µM (inactive) | > 100 µM (inactive) | > 100 µM (inactive) |  | > 100 µM (inactive) | > 100 µM (inactive) | > 100 µM (inactive) | 
13 | CCOC(=O)C1N(S(=O)(=O)c2ccc(C)cc2)CCC12C(c1ccc(OC)cc1)NC1CCCCC12 (stereo not given) | > 100 µM (inactive) | > 100 µM (inactive) |  | > 100 µM (inactive) | > 100 µM (inactive) |  | > 100 µM (inactive) | > 100 µM (inactive) | 97.1 µM (inactive)
14 | Cc1ccc(C(=O)OCC(C)C)cc1/N=N/N(C)C | 44 µM (inactive) | > 100 µM (inactive) |  | 38.7 µM (inactive) | 64.9 µM (inactive) |  | 45.5 µM (inactive) | 45.5 µM (inactive) | 
15 | CCC(C)NC1=C(NC(C)=O)C(=O)c2ccccc2C1=O (stereo not given) | 48.3 µM (inactive) | 54.8 µM (inactive) | > 75 µM (inactive) | > 75 µM (inactive) | > 75 µM (inactive) | > 75 µM (inactive) | 27.6 µM (inactive) | 27.4 µM (inactive) | 
16 | C/C(=N\OCC(O)CNC(C)C)c1ccc2c(c1)NC(=O)CS2 (stereo not given) | > 100 µM (inactive) | > 100 µM (inactive) | > 100 µM (inactive) | > 100 µM (inactive) | > 100 µM (inactive) | > 100 µM (inactive) |  | > 100 µM (inactive) | 
17 | O=C1c2ccccc2-c2c3c(cc4ccnc1c24)OCO3 [LIRIODENINE] | 5.86 µM (inactive) and 3.75 µM (inactive) | 5.89 µM (inactive) and 6.52 µM (inactive) | 24.9 µM (inactive) | 7.14 µM (inactive) and 5.82 µM (inactive) |  | 5.75 µM (inactive) and 4.69 µM (inactive) | 3.44 µM (inactive) and 5.46 µM (inactive) | 4.49 µM (inactive) and 4.05 µM (inactive) | 
18 | CC(C)(c1ccccc1)c1ccc(Oc2ccc(C#N)c(C#N)c2)cc1 | 79.1 µM (inactive) | 24.4 µM (inactive) | > 10 µM (inactive) | > 10 µM (inactive) | > 10 µM (inactive) | > 10 µM (inactive) |  | > 10 µM (inactive) | > 10 µM (inactive)
19 | COc1cc(CC(C)N)ccc1O (stereo not given) |  | > 100 µM (inactive) | > 100 µM (inactive) | > 100 µM (inactive) | > 100 µM (inactive) | > 100 µM (inactive) | > 100 µM (inactive) | > 100 µM (inactive) | > 100 µM (inactive)
20 | CC1CN(c2ccc(Cl)cc2)CC(C)(C)OC(=O)O1 (stereo not given) | > 100 µM (inactive) | > 100 µM (inactive) |  | > 100 µM (inactive) | > 100 µM (inactive) | > 100 µM (inactive) | > 100 µM (inactive) | > 100 µM (inactive) | > 100 µM (inactive)
21 | Cc1cn(Cc2ccccc2CCO)c(=S)[nH]c1=O | > 100 µM (inactive) | > 100 µM (inactive) | > 100 µM (inactive) | > 100 µM (inactive) |  | > 100 µM (inactive) | > 100 µM (inactive) |  | > 100 µM (inactive)
22 | O=C(O)C1Cc2[nH]cnc2CN1 (stereo not given) | > 100 µM (inactive) | > 100 µM (inactive) | > 100 µM (inactive) | > 100 µM (inactive) | > 100 µM (inactive) |  | > 100 µM (inactive) | > 100 µM (inactive) | > 100 µM (inactive)
23 | O=C(O)CCSC(=O)Nc1cccc(F)c1 |  | > 100 µM (inactive) |  | > 100 µM (inactive) | > 100 µM (inactive) |  | > 100 µM (inactive) | > 10 µM (inactive) | 
24 | Cc1ccc(NC(=O)CCc2nnc3s/c(=C\C=C\c4ccccc4)c(=O)n23)cc1 | 67.5 µM (inactive) | 60.7 µM (inactive) | 90.2 µM (inactive) | > 100 µM (inactive) | > 71 µM (inactive) | > 100 µM (inactive) | > 100 µM (inactive) | > 100 µM (inactive) | > 82.4 µM (inactive)
25 | Sc1nnc(C(c2ccccc2)c2ccccc2)[nH]1 | > 100 µM (inactive) |  |  | > 100 µM (inactive) |  | > 100 µM (inactive) | > 100 µM (inactive) | > 100 µM (inactive) | > 100 µM (inactive)
26 | CCOC(=O)/C(=C/c1ccc(C(F)(F)F)cc1)N(CC)CC |  | 51.6 µM (inactive) | 12.5 µM (inactive) |  | 81.8 µM (inactive) | 58.1 µM (inactive) |  | 54.1 µM (inactive) | > 100 µM (inactive)
27 | CC12c3ccccc3C(OC=O)(c3ccccc31)C1(C)c3ccccc3C2(OC=O)c2ccccc21 | > 100 µM (inactive) | > 100 µM (inactive) | > 100 µM (inactive) | > 100 µM (inactive) | > 100 µM (inactive) |  | 75.7 µM (inactive) | > 100 µM (inactive) | > 100 µM (inactive)
28 | COC(=O)[C@]1(C)CCC[C@]2(C)C3CC4OOC3(C=C4C(C)C)CCC21 (stereo not given in full) |  | 13.7 µM (inactive) |  | 17.9 µM (inactive) | 16.5 µM (inactive) |  | 18.5 µM (inactive) | 12.7 µM (inactive) | 
29 | CC(=O)OCC1OC(N2C(=O)C(=O)c3cc(C)ccc32)C(OC(C)=O)C(OC(C)=O)C1OC(C)=O (stereo not given) | 50.7 µM (inactive) | > 100 µM (inactive) | > 100 µM (inactive) | 60.5 µM (inactive) | > 100 µM (inactive) |  | > 100 µM (inactive) | 56 µM (inactive) | 
30 | COC(=O)C1CC/C(=N\c2cccc(C(F)(F)F)c2)N1 (stereo not given) |  | > 100 µM (inactive) | > 100 µM (inactive) |  | > 100 µM (inactive) | > 100 µM (inactive) | > 100 µM (inactive) | > 100 µM (inactive) | > 100 µM (inactive)
